Source: patent US20250186597A1, “TARGETED IMMUNE ACTIVATION WITH IL-18 IMMUNOCYTOKINES” (BRIGHT PEAK THERAPEUTICS AG, priority 2023, published 2025)

Tests used:
[1] = biological target: T1, human IL-18 Binding Protein (IL-18BP) (Homo sapiens, UniProt O95998); test: IL-18 Binding Protein alphaLISA assay (Example 12); conditions: human IL-18BP
T1 sequence (O95998 31-194): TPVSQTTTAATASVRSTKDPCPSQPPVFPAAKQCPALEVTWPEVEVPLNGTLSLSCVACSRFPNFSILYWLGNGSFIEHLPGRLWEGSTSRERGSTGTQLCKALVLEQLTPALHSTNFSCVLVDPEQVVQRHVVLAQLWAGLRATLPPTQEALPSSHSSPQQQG
Method: Wild type or modified IL-18 polypeptides samples were diluted at 5.6 μM in a solution of 1× alphaLISA Immunoassay Buffer provided in the alphaLISA IFNγ Detection kit and were diluted applying 3-fold serial dilutions down to […] in 384 deep well plates. A solution of 10 ng/ml of human IL-18BP-His was prepared with 1×alphaLISA Immunoassay Buffer. IL-18/IL-18BP complex formation was performed incubating 30 μl of IL-18BP solution to IL-18 sample titrations for 1 h at 20° C. IL-18BP standard was prediluted from stock solution supplied in alphaLISA IFNγ Detection kit at 100 ng/ml with 1×alphaLISA Buffer and titration prepared from applying 2-fold serial dilutions. The following solutions were prepared: a 50 μg/ml solution of anti-IL-18BP alphaLISA Acceptor beads, a 5 nM solution of biotinylated anti-IL18BP antibody and a 80 μg/ml light-protected solution of Streptavidin Donor beads in 1×alphaLISA Immunoassay Buffer. […]
5 μl of Biotinylated anti-IL-18BP antibody were added, followed by a short centrifugation step at 150 g, and incubated for 60 minutes at 20° C. under shaking at 750 rpm. […] AlphaLisa signal was then measured on an Enspire plate reader (Perkin Elmer) using 680 and 615 nm as excitation and emission wavelengths respectively. […]

[2] = system: parental PD-1negative NK-92 cells; test: IL-18BP mediated inhibition of IFN gamma secretion in parental PD-1 negative NK-92 cells (Example 18); type: cell-based, human; conditions: IL-18BP-mediated inhibition of IFNγ secretion, IL-18 analyte 1 nM
Method: To characterize the resistance of anti-PD1-IL18 immunocytokines (IC) on PD-1 positive cells, the NK-92 cell line was used to generate a PD-1 expressing cell line and furthermore, to measure the inhibition of IFN[…] release upon incubation with IL-18 variants and ICs in the presence of increasing quantities of human IL-18BP.
On the day of experiment, parental PD-1^negative and PD-1^positive transduced cells were harvested and washed with PBS 1× and resuspended in medium (w/o IL-2) containing 1 ng/ml of recombinant human Interleukin-12 (SinoBiologicals, Cat #CT011-H08H). After counting, cells were seeded at 100 000 cells/well in a 384 well culture plate and incubated at 37° C./5% CO2. When indicated, cells were preincubated with anti-PD-1 antibody LZM-009 at 17 uM during 30 min at 37° C. […]
After 16-20 h incubation at 37° C./5% CO2, 5 μl of supernatant were carefully transferred to a 384 microwell OptiIPlate (Perkin Elmer; Cat #6007270) and Interferon-gamma (IFNγ) levels measured using the Human IFNγ AlphaLISA Assay Kit (Perkin Elmer, Cat #AL217C). […] AlphaLISA signal was then measured on an Enspire plate reader (Perkin Elmer) using 680 and 615 nm as excitation and emission wavelengths respectively. Half maximal inhibitory concentration (IC50) was calculated based on a variable slope, four parameter analysis using GraphPad PRISM software.

NK92 cells = test: Cellular IL-18 Binding Protein resistance assay in NK92 cells (Example 13); type: cell-based, human; conditions: IL-18BP-mediated inhibition of IFNγ secretion, IL-18 analyte 1 nM
Method: The NK cell line NK-92 derived from a patient with lymphoma (ATCC, Cat #CR^L-2407) was cultured in αMEM medium supplemented with 20% FCS-Glutamax, 25 μM B-mercaptoethanol, and 100 IU/ml of recombinant Human Interleukin-2 (IL-2). On the day of experiment, cells were harvested and washed with αMEM medium without IL-2. After counting, cells were seeded at 100 000 cells/well in a 384 well titer plate and incubated at 37° C./5% CO2. Sixteen 2-fold serial dilutions of Fc fused human IL-18 binding protein isoform a (IL-18BPa; R&D systems, Cat #119-BP) were prepared in αMEM medium—1 ng/ml IL-12 containing 2 nM of each IL-18 variants and were added to the NK-92 cells. Final IL-18 analytes concentration was 1 nM and final IL-18BPa concentrations ranged from to 566 nM down to 17 pM.
After 16-20 h incubation at 37° C./5% CO2, 5 μl of supernatant were carefully transferred to a 384 microwells OPTIplate (Perkin Elmer; Cat #6007270) and Interferon-gamma (IFNγ) levels measured using the Human IFNγ AlphaLISA Assay Kit (Perkin Elmer, Cat #AL217C). […] AlphaLisa signal was then measured on an Enspire plate reader (Perkin Elmer) using 680 and 615 nm as excitation and emission wavelengths respectively. Half maximal inhibitory concentration (IC50) was calculated based on a variable slope, four parameter analysis using GraphPad PRISM software.

Substance: SEQ ID NO: 1: Native sequence of human IL-18 (bioactive form) [reference compound]
- Kd [1]: 0.411 nM
- IC50 [2]: 2.97 nM
- IC50 (NK92 cells): 0.781 nM
